Laboratory results published in patent publication US6586368B1, “Condensed heterocylic compounds and herbicides containing them” (Sumitomo Chemical Company, Limited, priority 1998, dated 2003).

What was measured:
Type in all cases: in vivo
[1] = tested on: velvetleaf (Abutilon theophrasti); assay: Test Example 2: foliage treatment of velvetleaf in pots, herbicidal activity; conditions: emulsifiable concentrate sprayed over the foliage, dosage of 8000 g/ha, 1000 liters per hectare, plants 14 days after seeding, examined after 5 days in greenhouse
Experimental: Cylindrical plastic pots of 10 cm in diameter and 10 cm in depth were filled with soil, seeded with velvetleaf (Abutilon theophrasti), and kept in a greenhouse for 14 days. After that, according to Formulation Example 2, compound 2-2001 or 3-2001 was formulated into an emulsifiable concentrate, which was diluted in a prescribed amount with water containing a spreading agent and then uniformly sprayed over the foliage of the plants with a sprayer at a ratio of 1000 liters per hectare. The pots were further kept in the greenhouse for 5 days and examined for herbicidal activity.

[2] = tested on: velvetleaf (Abutilon theophrasti); assay: Test Example 3: soil surface treatment, velvetleaf seeded in pots, herbicidal activity; conditions: emulsifiable concentrate sprayed over the surface of the soil after seeding, dosage of 2000 g/ha, 1000 liters per hectare, examined after 9 days in greenhouse
[3] = tested on: barnyardgrass (Echinochloa oryzicola); assay: Test Example 4: flooded paddy field treatment of barnyardgrass in pots, herbicidal activity; conditions: emulsifiable concentrate applied on the water surface of flooded pots, dosage of 1000 g/ha, 50 liters per are, plants 12 days after seeding, examined after 9 days in greenhouse
[4] = tested on: velvetleaf (Abutilon theophrasti); assay: Test Example 1: foliage treatment of velvetleaf in pots, herbicidal activity; conditions: emulsifiable concentrate sprayed over the foliage, dosage of 2000 g/ha, 1000 liters per hectare, plants 14 days after seeding, examined after 8 days in greenhouse

Compound	herbicidal activity: kill of velvetleaf [1]	herbicidal activity: germination of velvetleaf [2]	herbicidal activity: growth of barnyardgrass [3]	herbicidal activity: growth of velvetleaf [4]
O=c1cc(C(F)(F)F)ncn1-n1ccc2ccccc21 [Compound 3-2001]	completely killed	–	–	–
O=C1C2=C(CCCC2)C(=O)N1n1ccc2ccccc21 [Compound 2-2001]	completely killed	–	–	–
COC(=O)c1ccc2occ(-n3c(=O)cc(C(F)(F)F)n(C)c3=O)c2c1 [Compound 1-303, Methyl 3-[3-methyl-2,6-dioxo-4-(trifluoromethyl)-1,2,3,6-tetrahydropyrimidin-1-yl]benzo[b]furan-5-carboxylate]	–	completely inhibited the germination	completely inhibited the growth	completely inhibited the growth
CCOC(=O)C=Cc1cc(Cl)c2occ(-n3c(=O)cc(C(F)(F)F)n(C)c3=O)c2c1 [Compound 1-378]	–	completely inhibited the germination	completely inhibited the growth	completely inhibited the growth
